Where “and” joins values, the source holds several entries; their conditions need not be identical. Identical values can stand only once. Like-named read-outs stand apart in the source and are kept apart here.
Molecular target: T1, mouse ATGL (aa 1–288) (Mus musculus, UniProt Q8BJ56)
T1 construct: mouse ATGL (aa 1–288); host or cells: Expi293 cells, crude lysate
Assay: TAG hydrolase assay, wild-type and chimeric ATGL variants
Type: biochemical
Settings: wild-type mouse ATGL (aa 1–288)
Excerpt: Since experimental three-dimensional (3D) structures for ATGL are currently not available, we utilized chimeric variants of mouse and human ATGL for the identification of binding sites. The constructs c1–c9 (Figure 5a) comprised the N-terminal […] of ATGL, which are sufficient to retain enzymatic activity.[50] In variants c1 and c2, exchange of the N-terminal 158 aa between human and mouse ATGL switched inhibitor reactivity.
Figure 5 Analysis of chimeric proteins comprising human and mouse ATGL. (a) Schematic view of the minimal active domain of wild-type and chimeric ATGL variants (c1–c9). Nonidentical aa are indicated in blue and red for mouse and human ATGL, respectively. ATGL variants were expressed in Expi293 cells and TAG hydrolase activity was determined in cell lysates in the presence or absence of NG-497 (10 μM) and Atglistatin (10 μM), respectively. Inhibition of ATGL variants by respective inhibitors (tick mark) and lack of inhibition (cross) is indicated at the right edge. The expression of all ATGL variants was confirmed by Western blotting analysis (Figure S6). […]
Expression of recombinant ATGL constructs and preparation of cell lysates. […] Protein concentrations were determined using Bio-Rad protein assay (Bio-Rad 785, Bio-Rad Laboratories, Munich, Germany) using BSA as standard. […]

T1 sequence (Q8BJ56 1-288): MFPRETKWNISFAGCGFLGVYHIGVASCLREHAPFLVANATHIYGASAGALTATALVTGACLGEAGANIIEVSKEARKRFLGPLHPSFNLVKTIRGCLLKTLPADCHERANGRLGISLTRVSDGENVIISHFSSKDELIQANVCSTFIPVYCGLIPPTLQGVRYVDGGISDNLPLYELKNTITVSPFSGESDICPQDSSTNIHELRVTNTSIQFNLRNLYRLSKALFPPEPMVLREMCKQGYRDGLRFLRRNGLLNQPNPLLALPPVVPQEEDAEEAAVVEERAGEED

Row | SMILES | IC50 (read-out: IC50) | IC50
1 | CN(C)C(=O)Nc1cccc(-c2ccc(N(C)C)cc2)c1 [Atglistatin, reference compound] | ~2500 nM and 2500 nM | –
2 | CCOc1ccc(-c2cc(OC)cc(C(=O)OC(C)C)n2)cc1 [NG-497] | – | ineffective

From article PMC9011347, “Small-Molecule Inhibitors Targeting Lipolysis in Human Adipocytes” (Journal of the American Chemical Society, 2022)
